# Data as given in US20150105252A1, “SUBSTITUTED PYRAZOLES AS HERBICIDES” (E I DU PONT DE NEMOURS AND COMPANY, priority 2013, published 2015).
# What was measured:
# galium = experiment: Test D postemergence; assay type: in vivo, Galium aparine; conditions: scale 0 to 100
# Outline: (§1)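 Seeds are planted in silt loam and treated preemergence, while parallel plantings in a peat moss/vermiculite medium with starter nutrients receive postemergence sprays at the 1- to 4-leaf stage. All formulations use a non-phytotoxic solvent mixture with surfactant. Plants are kept in a controlled growth environment and rated visually after 14–21 days.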
# buckwheat, wild = experiment: Test D postemergence; assay type: in vivo, Polygonum convolvulus; conditions: scale 0 to 100
# From the text: (§2) Seeds of plant species selected from bluegrass (annual bluegrass, Poa annua), blackgrass (Alopecurus myosuroides), canarygrass (littleseed canarygrass, Phalaris minor), chickweed (common chickweed, Stellaria media), galium (catchweed bedstraw, Galium aparine), bromegrass, downy (downy bromegrass, Bromus tectorum), field poppy (Papaver rhoeas), field violet (Viola arvensis), foxtail, green (green foxtail, Setaria viridis), deadnettle (henbit deadnettle, Lamium amplexicaule), ryegrass, Italian (Italian ryegrass, Lolium multiflorum), kochia (Kochia scoparia), lambsquarters (Chenopodium album), oilseed rape (Brassica napus), pigweed (redroot pigweed, Amaranthus retroflexus), chamomile (scentless chamomile, Matricaria inodora), speedwell (bird's-eye speedwell, Veronica persica), barley, spring (spring barley, Hordeum vulgare), wheat, spring (spring wheat, Triticum aestivum), buckwheat, wild (wild buckwheat, Polygonum convolvulus), mustard, wild (wild mustard, Sinapis arvensis), oat, wild (wild oat, Avena fatua), radish, wild (wild radish, Raphanus raphanistrum), windgrass (Apera spica-venti), Russian thistle (Salsola kali), barley, winter (winter barley, Hordeum vulgare), and wheat, winter (winter wheat, Triticum aestivum) were planted into a silt loam soil and treated preemergence with test chemicals formulated in a non-phytotoxic solvent mixture which included a surfactant.
# (§3) At the same time, these species were planted in pots containing Redi-Earth® planting medium (Scotts Company, 14111 Scottslawn Road, Marysville, Ohio 43041) comprising spaghnum peat moss, vermiculite, wetting agent and starter nutrients and treated with postemergence applications of the test chemicals formulated in the same manner. Plants ranged in height from 2 to 18 cm (1- to 4-leaf stage). Treated plants and controls were maintained in a controlled growth environment for 14 to 21 days after which time all species were compared to controls and visually evaluated. Plant response ratings, summarized in Table D, are based on a scale of 0 to 100 where 0 is no effect and 100 is complete control. A dash (-) response means no test result.
# speedwell = experiment: Test D preemergence; assay type: in vivo, Veronica persica; conditions: for Plant response rating, Speedwell: Preemergence, scale 0 to 100
# Outline: as §1
# field poppy = experiment: Test D postemergence; assay type: in vivo, Papaver rhoeas; conditions: scale 0 to 100
# Outline: as §1
# kochia [1] = experiment: Test D postemergence; assay type: in vivo, Kochia scoparia; conditions: scale 0 to 100
# From the text: as §2, §3
# deadnettle = experiment: Test D postemergence; assay type: in vivo, Lamium amplexicaule; conditions: scale 0 to 100
# Outline: as §1
# bluegrass [2] = experiment: Test D preemergence; assay type: in vivo, Poa annua; conditions: for Plant response rating, Bluegrass: Preemergence, scale 0 to 100
# Outline: as §1
# kochia [3] = experiment: Test D preemergence; assay type: in vivo, Kochia scoparia; conditions: for Plant response rating, Kochia: Preemergence, scale 0 to 100
# From the text: as §2, §3
# canarygrass = experiment: Test D postemergence; assay type: in vivo, Phalaris minor; conditions: scale 0 to 100
# From the text: as §2, §3
# field violet [4] = experiment: Test D preemergence; assay type: in vivo, Viola arvensis; conditions: for Plant response rating, Field Violet: Preemergence, scale 0 to 100
# From the text: as §2, §3
# mustard, wild = experiment: Test D preemergence; assay type: in vivo, Sinapis arvensis; conditions: Preemergence, scale 0 to 100
# From the text: as §2, §3
# bromegrass, downy [5] = experiment: Test D postemergence; assay type: in vivo, Bromus tectorum; conditions: scale 0 to 100
# Outline: as §1
# chickweed = experiment: Test D postemergence; assay type: in vivo, Stellaria media; conditions: scale 0 to 100
# Outline: as §1
# field violet [6] = experiment: Test D postemergence; assay type: in vivo, Viola arvensis; conditions: scale 0 to 100
# Outline: as §1
# foxtail, green = experiment: Test D preemergence; assay type: in vivo, Setaria viridis; conditions: for Plant response rating, Foxtail, Green: Preemergence, scale 0 to 100
# From the text: as §2, §3
# windgrass = experiment: Test D postemergence; assay type: in vivo, Apera spica-venti; conditions: scale 0 to 100
# Outline: as §1
# radish, wild = experiment: Test D preemergence; assay type: in vivo, Raphanus raphanistrum; conditions: Preemergence, scale 0 to 100
# From the text: as §2, §3
# bluegrass [7] = experiment: Test D postemergence; assay type: in vivo, Poa annua; conditions: scale 0 to 100
# Outline: as §1
# chamomile = experiment: Test D preemergence; assay type: in vivo, Matricaria inodora; conditions: for Plant response rating, Chamomile: Preemergence, scale 0 to 100
# Outline: as §1
# bromegrass, downy [8] = experiment: Test D preemergence; assay type: in vivo, Bromus tectorum; conditions: for Plant response rating, Bromegrass, Downy: Preemergence, scale 0 to 100
# Outline: as §1
# [9] = 16 g ai/ha, taken as preemergence
structure (smiles),measurement,setting,value
CCc1cc(C(=O)NC2CC2)nn1Cc1ccnc(C(F)(F)F)c1 [Compound 76],"Plant response rating, Galium","galium; Postemergence, 16 g ai/ha",55
same,Galium plant response rating,"galium; Postemergence, 31 g ai/ha",70
same,Galium plant response rating,"galium; Postemergence, 125 g ai/ha",75
same,Galium plant response rating,"galium; Postemergence, 250 g ai/ha",95
same,Galium plant response rating,"galium; postemergence, 62 g ai/ha",75
same,"Plant response rating, Buckwheat, Wild","buckwheat, wild; Postemergence, 16 g ai/ha",50
same,"Buckwheat, Wild plant response rating","buckwheat, wild; Postemergence, 31 g ai/ha",55
same,"Buckwheat, Wild plant response rating","buckwheat, wild; Postemergence, 125 g ai/ha",60
same,"Buckwheat, Wild plant response rating","buckwheat, wild; Postemergence, 250 g ai/ha",100
same,"Buckwheat, Wild plant response rating","buckwheat, wild; postemergence, 62 g ai/ha",50
same,"Plant response rating (scale 0 to 100), Speedwell",speedwell; [9],100
same,"Plant response rating, Speedwell",speedwell; 31 g ai/ha,100
same,"Plant response rating, Speedwell",speedwell; 62 g ai/ha,100
same,"Plant response rating, Speedwell",speedwell; 125 g ai/ha,100
same,"Plant response rating, Speedwell",speedwell; 250 g ai/ha,100
same,"Plant response rating, Field Poppy","field poppy; Postemergence, 16 g ai/ha",60
same,Field Poppy plant response rating,"field poppy; Postemergence, 31 g ai/ha",65
same,Field Poppy plant response rating,"field poppy; Postemergence, 125 g ai/ha",85
same,Field Poppy plant response rating,"field poppy; Postemergence, 250 g ai/ha",90
same,Field Poppy plant response rating,"field poppy; postemergence, 62 g ai/ha",70
same,"Plant response rating, Kochia","kochia [1]; Postemergence, 16 g ai/ha",25
same,Kochia plant response rating,"kochia [1]; Postemergence, 31 g ai/ha",40
same,Kochia plant response rating,"kochia [1]; Postemergence, 125 g ai/ha",60
same,Kochia plant response rating,"kochia [1]; Postemergence, 250 g ai/ha",75
same,Kochia plant response rating,"kochia [1]; postemergence, 62 g ai/ha",50
same,"Plant response rating, Deadnettle","deadnettle; Postemergence, 16 g ai/ha",15
same,Deadnettle plant response rating,"deadnettle; Postemergence, 31 g ai/ha",25
same,Deadnettle plant response rating,"deadnettle; Postemergence, 125 g ai/ha",50
same,Deadnettle plant response rating,"deadnettle; Postemergence, 250 g ai/ha",70
same,Deadnettle plant response rating,"deadnettle; postemergence, 62 g ai/ha",40
same,"Plant response rating (scale 0 to 100), Bluegrass",bluegrass [2]; [9],0
same,"Plant response rating, Bluegrass",bluegrass [2]; 31 g ai/ha,0
same,"Plant response rating, Bluegrass",bluegrass [2]; 62 g ai/ha,5
same,"Plant response rating, Bluegrass",bluegrass [2]; 125 g ai/ha,55
same,"Plant response rating, Bluegrass",bluegrass [2]; 250 g ai/ha,100
same,"Plant response rating (scale 0 to 100), Kochia",kochia [3]; [9],20
same,"Plant response rating, Kochia",kochia [3]; 31 g ai/ha,100
same,"Plant response rating, Kochia",kochia [3]; 62 g ai/ha,100
same,"Plant response rating, Kochia",kochia [3]; 125 g ai/ha,100
same,"Plant response rating, Kochia",kochia [3]; 250 g ai/ha,100
same,"Plant response rating, Canarygrass","canarygrass; Postemergence, 16 g ai/ha",5
same,Canarygrass plant response rating,"canarygrass; Postemergence, 31 g ai/ha",5
same,Canarygrass plant response rating,"canarygrass; Postemergence, 125 g ai/ha",10
same,Canarygrass plant response rating,"canarygrass; Postemergence, 250 g ai/ha",15
same,Canarygrass plant response rating,"canarygrass; postemergence, 62 g ai/ha",10
same,"Plant response rating (scale 0 to 100), Field Violet",field violet [4]; [9],60
same,"Plant response rating, Field Violet",field violet [4]; 31 g ai/ha,95
same,"Plant response rating, Field Violet",field violet [4]; 62 g ai/ha,100
same,"Plant response rating, Field Violet",field violet [4]; 125 g ai/ha,100
same,"Plant response rating, Field Violet",field violet [4]; 250 g ai/ha,100
same,"Plant response rating, Mustard, Wild","mustard, wild; 31 g ai/ha",60
same,"Plant response rating, Mustard, Wild","mustard, wild; 62 g ai/ha",100
same,"Plant response rating, Mustard, Wild","mustard, wild; 125 g ai/ha",100
same,"Plant response rating, Mustard, Wild","mustard, wild; 250 g ai/ha",100
same,"Plant response rating, Bromegrass, Downy","bromegrass, downy [5]; Postemergence, 16 g ai/ha",0
same,"Bromegrass, Downy plant response rating","bromegrass, downy [5]; Postemergence, 31 g ai/ha",0
same,"Bromegrass, Downy plant response rating","bromegrass, downy [5]; Postemergence, 125 g ai/ha",10
same,"Bromegrass, Downy plant response rating","bromegrass, downy [5]; Postemergence, 250 g ai/ha",15
same,"Bromegrass, Downy plant response rating","bromegrass, downy [5]; postemergence, 62 g ai/ha",5
same,"Plant response rating, Chickweed","chickweed; Postemergence, 16 g ai/ha",35
same,Chickweed plant response rating,"chickweed; Postemergence, 31 g ai/ha",50
same,Chickweed plant response rating,"chickweed; Postemergence, 125 g ai/ha",60
same,Chickweed plant response rating,"chickweed; Postemergence, 250 g ai/ha",70
same,Chickweed plant response rating,"chickweed; postemergence, 62 g ai/ha",55
same,"Plant response rating, Field Violet","field violet [6]; Postemergence, 16 g ai/ha",10
same,Field Violet plant response rating,"field violet [6]; Postemergence, 31 g ai/ha",15
same,Field Violet plant response rating,"field violet [6]; Postemergence, 125 g ai/ha",70
same,Field Violet plant response rating,"field violet [6]; Postemergence, 250 g ai/ha",85
same,Field Violet plant response rating,"field violet [6]; postemergence, 62 g ai/ha",20
same,"Plant response rating (scale 0 to 100), Foxtail, Green","foxtail, green; [9]",25
same,"Plant response rating, Foxtail, Green","foxtail, green; 31 g ai/ha",50
same,"Plant response rating, Foxtail, Green","foxtail, green; 62 g ai/ha",100
same,"Plant response rating, Foxtail, Green","foxtail, green; 125 g ai/ha",100
same,"Plant response rating, Foxtail, Green","foxtail, green; 250 g ai/ha",100
same,"Plant response rating, Windgrass","windgrass; Postemergence, 16 g ai/ha",5
same,Windgrass plant response rating,"windgrass; Postemergence, 31 g ai/ha",5
same,Windgrass plant response rating,"windgrass; Postemergence, 125 g ai/ha",10
same,Windgrass plant response rating,"windgrass; Postemergence, 250 g ai/ha",15
same,Windgrass plant response rating,"windgrass; postemergence, 62 g ai/ha",10
same,"Plant response rating, Radish, Wild","radish, wild; 31 g ai/ha",75
same,"Plant response rating, Radish, Wild","radish, wild; 62 g ai/ha",100
same,"Plant response rating, Radish, Wild","radish, wild; 125 g ai/ha",100
same,"Plant response rating, Radish, Wild","radish, wild; 250 g ai/ha",100
same,"Plant response rating, Bluegrass","bluegrass [7]; Postemergence, 16 g ai/ha",5
same,Bluegrass plant response rating,"bluegrass [7]; Postemergence, 31 g ai/ha",5
same,Bluegrass plant response rating,"bluegrass [7]; Postemergence, 125 g ai/ha",20
same,Bluegrass plant response rating,"bluegrass [7]; Postemergence, 250 g ai/ha",20
same,Bluegrass plant response rating,"bluegrass [7]; postemergence, 62 g ai/ha",10
same,"Plant response rating (scale 0 to 100), Chamomile",chamomile; [9],50
same,"Plant response rating, Chamomile",chamomile; 31 g ai/ha,80
same,"Plant response rating, Chamomile",chamomile; 62 g ai/ha,95
same,"Plant response rating, Chamomile",chamomile; 125 g ai/ha,100
same,"Plant response rating, Chamomile",chamomile; 250 g ai/ha,100
same,"Plant response rating (scale 0 to 100), Bromegrass, Downy","bromegrass, downy [8]; [9]",0
same,"Plant response rating, Bromegrass, Downy","bromegrass, downy [8]; 31 g ai/ha",0
same,"Plant response rating, Bromegrass, Downy","bromegrass, downy [8]; 62 g ai/ha",0
same,"Plant response rating, Bromegrass, Downy","bromegrass, downy [8]; 125 g ai/ha",5
same,"Plant response rating, Bromegrass, Downy","bromegrass, downy [8]; 250 g ai/ha",65
